Laboratory results taken from US11427606B2, “Azithromycin derivatives containing a phosphonium ion as anticancer agents” (Rising Tide Foundation, priority 2017, dated 2022).

System: MDA-231 cancer cells
Assay: Inhibition of proliferation assay: cell confluence (IncuCyte imaging)
Format: cell-based
Conditions: compound at 10 uM; MDA-231 cells; IncuCyte images every 3 h over 4-5 d; relative confluence normalised to time zero
Source text: Inhibition of Proliferation Assay
The confluence value is a surrogate for cell proliferation and growth. The value is expressed as a percent confluence, which represents the fraction of culture dish-surface that is occupied by cells. As the number of cells in the dish increases over time due to proliferation, so will their coverage of that surface increase. Expansion of the cell population on the cell culture-dish surface and confluence have mostly a linear relationship until the cells on the plate surface begin to reach saturation or maximum density.
Confluence is determined based on image analysis. Image based software can identify objects in the image field base on changes to pixel density in a grey scale image. The software can then assign a mask to those pixels within the object. Objects can be ‘gated’ out based on size and shape. To determine cell confluence, images of cells are first masked as objects. The surface area of the image that is masked is measured and compared to the total surface area of the culture dish surface to obtain a percent confluence.
MDA-231 cancer cells were obtained from ATCC. Cells were cultured in Dulbecco's Modified Eagle Medium (DMEM) supplemented with 10% Fetal Bovine Serum (FBS), 2 mM Glutamax, 1 mM Non Essential Amino Acid (NEAA) solution and 1 mM sodium pyruvate. […] Final DMSO concentrations were […]. Images were acquired with an IncuCyte Live Cell Imaging microscopy (Essen Bioscience) at every 3 h under cell culture conditions with 10× objective over 4-5 d. Cell confluence was calculated from one field of view per well using the IncuCyte in-built algorithm. Relative confluence values were obtained by normalising each value to the time zero value in each sample.

First: CC[C@H]1OC(=O)[C@H](C)[C@@H](O)[C@H](C)[C@@H](O[C@@H]2O[C@H](C)C[C@H](N(C)C)[C@H]2O)[C@](C)(O)C[C@@H](C)CN(CCCCCCCC[P+](c2ccc(OC)cc2)(c2ccc(OC)cc2)c2ccc(OC)cc2)[C@H](C)[C@@H](O)[C@]1(C)O [Example 20]
Second: CC[C@H]1OC(=O)[C@H](C)[C@@H](O)[C@H](C)[C@@H](O[C@@H]2O[C@H](C)C[C@H](N(C)C)[C@H]2O)[C@](C)(O)C[C@@H](C)CN(CCCCCCCC[P+](c2ccccc2)(c2ccccc2)c2ccc(N(C)C)cc2)[C@H](C)[C@@H](O)[C@]1(C)O.[I-] [Example 21]
The “% Confluence” value of the first is lower: 14.8% for the first, 89.9% for the second.

Going from `CC[C@H]1OC(=O)[C@H](C)[C@@H](O[C@H]2C[C@@](C)(OC)[C@@H](O)[C@H](C)O2)[C@H](C)[C@@H](O[C@@H]2O[C@H](C)C[C@H](N(C)C)[C@H]2O)[C@](C)(O)C[C@@H](C)CN(C(=O)CCCCCCCCCCC[P+](C)(c2ccccc2)c2ccccc2)[C@H](C)[C@@H](O)[C@]1(C)O.[Cl-]` [Example 22, {12-[(2R,3S,4R,5R,8R,10R,11R,12S,13S,14R)-11-{[(2S,3R,4S,6R)-4-(dimethylamino)-3-hydroxy-6-methyloxan-2-yl]oxy}-2-ethyl-3,4,10-trihydroxy-13-{[(2R,4R,5S,6S)-5-hydroxy-4-methoxy-4,6-dimethyloxan-2-yl]oxy}-3,5,8,10,12,14-hexamethyl-15-oxo-1-oxa-6-azacyclopentadecan-6-yl]-12-oxododecyl}(methyl)diphenylphosphonium chloride] to `CC[C@H]1OC(=O)[C@H](C)[C@@H](O[C@H]2C[C@@](C)(OC)[C@@H](O)[C@H](C)O2)[C@H](C)[C@@H](O[C@@H]2O[C@H](C)C[C@H](N(C)C)[C@H]2O)[C@](C)(O)C[C@@H](C)CN(C(=O)CCCCCCCCCCC[P+](c2ccccc2)(c2ccccc2)c2cnn(C)c2)[C@H](C)[C@@H](O)[C@]1(C)O.[Cl-]` [Example 28, {12-[(2R,3S,4R,5R,8R,10R,11R,12S,13S,14R)-11-{[(2S,3R,4S,6R)-4-(dimethylamino)-3-hydroxy-6-methyloxan-2-yl]oxy}-2-ethyl-3,4,10-trihydroxy-13-{[(2R,4R,5S,6S)-5-hydroxy-4-methoxy-4,6-dimethyloxan-2-yl]oxy}-3,5,8,10,12,14-hexamethyl-15-oxo-1-oxa-6-azacyclopentadecan-6-yl]-12-oxododecyl}(1-methyl-1H-pyrazol-4-yl)diphenylphosphonium chloride], the “% Confluence” value falls from 137% to 16%.

Going from `CC[C@H]1OC(=O)[C@H](C)[C@@H](O[C@H]2C[C@@](C)(OC)[C@@H](O)[C@H](C)O2)[C@H](C)[C@@H](O[C@@H]2O[C@H](C)C[C@H](N(C)C)[C@H]2O)[C@](C)(O)C[C@@H](C)CN(C(=O)CCCCCCCCCCC[PH](C)(C)c2ccccc2)[C@H](C)[C@@H](O)[C@]1(C)O` [Example 23, {12-[(2R,3S,4R,5R,8R,10R,11R,12S,13S,14R)-11-{[(2S,3R,4S,6R)-4-(dimethylamino)-3-hydroxy-6-methyloxan-2-yl]oxy}-2-ethyl-3,4,10-trihydroxy-13-{[(2R,4R,5S,6S)-5-hydroxy-4-methoxy-4,6-dimethyloxan-2-yl]oxy}-3,5,8,10,12,14-hexamethyl-15-oxo-1-oxa-6-azacyclopentadecan-6-yl]-12-oxododecyl}dimethylphenylphosphonium chloride] to `CC[C@H]1OC(=O)[C@H](C)[C@@H](O[C@H]2C[C@@](C)(OC)[C@@H](O)[C@H](C)O2)[C@H](C)[C@@H](O[C@@H]2O[C@H](C)C[C@H](N(C)C)[C@H]2O)[C@](C)(O)C[C@@H](C)CN(C(=O)CCCCCCCCCCC[P+](C)(C)C)[C@H](C)[C@@H](O)[C@]1(C)O.[Cl-]` [Example 24, {12-[(2R,3S,4R,5R,8R,10R,11R,12S,13S,14R)-11-{[(2S,3R,4S,6R)-4-(dimethylamino)-3-hydroxy-6-methyloxan-2-yl]oxy}-2-ethyl-3,4,10-trihydroxy-13-{[(2R,4R,5S,6S)-5-hydroxy-4-methoxy-4,6-dimethyloxan-2-yl]oxy}-3,5,8,10,12,14-hexamethyl-15-oxo-1-oxa-6-azacyclopentadecan-6-yl]-12-oxododecyl}trimethylphosphonium chloride], the “% Confluence” value rises from 7.5% to 140%.

First: CC[C@H]1OC(=O)[C@H](C)[C@@H](O[C@H]2C[C@@](C)(OC)[C@@H](O)[C@H](C)O2)[C@H](C)[C@@H](O[C@@H]2O[C@H](C)C[C@H](N(C)C)[C@H]2O)[C@](C)(O)C[C@@H](C)CN(C(=O)CCCCCCC[P+](C)(C)C)[C@H](C)[C@@H](O)[C@]1(C)O.[Cl-] [Example 25, {8-[(2R,3S,4R,5R,8R,10R,11R,12S,13S,14R)-11-{[(2S,3R,4S,6R)-4-(dimethylamino)-3-hydroxy-6-methyloxan-2-yl]oxy}-2-ethyl-3,4,10-trihydroxy-13-{[(2R,4R,5S,6S)-5-hydroxy-4-methoxy-4,6-dimethyloxan-2-yl]oxy}-3,5,8,10,12,14-hexamethyl-15-oxo-1-oxa-6-azacyclopentadecan-6-yl]-8-oxooctyl}trimethylphosphonium chloride]
Second: CC[C@H]1OC(=O)[C@H](C)[C@@H](O[C@H]2C[C@@](C)(OC)[C@@H](O)[C@H](C)O2)[C@H](C)[C@@H](O[C@@H]2O[C@H](C)C[C@H](N(C)C)[C@H]2O)[C@](C)(O)C[C@@H](C)CN(C(=O)CCCCCCC[P+](c2ccccc2)(c2ccccc2)c2cnn(C)c2)[C@H](C)[C@@H](O)[C@]1(C)O.[Cl-] [Example 27, {8-[(2R,3S,4R,5R,8R,10R,11R,12S,13S,14R)-11-{[(2S,3R,4S,6R)-4-(dimethylamino)-3-hydroxy-6-methyloxan-2-yl]oxy}-2-ethyl-3,4,10-trihydroxy-13-{[(2R,4R,5S,6S)-5-hydroxy-4-methoxy-4,6-dimethyloxan-2-yl]oxy}-3,5,8,10,12,14-hexamethyl-15-oxo-1-oxa-6-azacyclopentadecan-6-yl]-8-oxooctyl}(1-methyl-1H-pyrazol-4-yl)diphenylphosphonium chloride]
The “% Confluence” value of the first is higher: 124% for the first, 123% for the second.

With `CC[C@H]1OC(=O)[C@H](C)[C@@H](O[C@H]2C[C@@](C)(OC)[C@@H](O)[C@H](C)O2)[C@H](C)[C@@H](O[C@@H]2O[C@H](C)C[C@H](N(C)C)[C@H]2O)[C@](C)(O)C[C@@H](C)CN(C(=O)CCCCCCCCCCC[PH](c2cc(C)cc(C)c2)(c2cc(C)cc(C)c2)c2cc(C)cc(C)c2)[C@H](C)[C@@H](O)[C@]1(C)O` [Example 29, {12-[(2R,3S,4R,5R,8R,10R,11R,12S,13S,14R)-11-{[(2S,3R,4S,6R)-4-(dimethylamino)-3-hydroxy-6-methyloxan-2-yl]oxy}-2-ethyl-3,4,10-trihydroxy-13-{[(2R,4R,5S,6S)-5-hydroxy-4-methoxy-4,6-dimethyloxan-2-yl]oxy}-3,5,8,10,12,14-hexamethyl-15-oxo-1-oxa-6-azacyclopentadecan-6-yl]-12-oxododecyl}tris(3,5-dimethylphenyl)phosphonium chloride] the “% Confluence” value was 4.6%.
